Laboratory results as given in the OligoGym collection.
Oligonucleotides are written 5' to 3', each unit as a sugar letter and its base; * is a phosphorothioate linkage, no mark a phosphodiester; rarer units and linkages stand in square brackets, end groups in braces. Plain capitals give the bases only. d = 2'-deoxy (DNA); r = 2'-OH (RNA)

What follows are substances tested against P2RX3 (assay: reporter assay of Huesken 2005). Settings: siRNA.
Also: test concentration or dose not given here.

**Q.** How did the normalised inhibition (eCFP-eYFP dual reporter) turn out when “sense rCrArUrCrArUrCrCrCrCrArCrCrArUrCrArUrCdTdT / antisense rGrArUrGrArUrGrGrUrGrGrGrGrArUrGrArUrGdTdT” was run?
**A.** Its normalised inhibition (eCFP-eYFP dual reporter) is 38.5%.

**Q.** Which normalised inhibition (eCFP-eYFP dual reporter) does the source give for “sense rCrCrArArGrArUrGrArUrUrGrUrUrArCrUrGrAdTdT / antisense rUrCrArGrUrArArCrArArUrCrArUrCrUrUrGrGdTdG” here?
**A.** Its normalised inhibition (eCFP-eYFP dual reporter) is 98.9%.

**Q.** For “sense rCrCrArCrArGrCrGrGrArGrArArGrCrArGrUrCdTdT / antisense rGrArCrUrGrCrUrUrCrUrCrCrGrCrUrGrUrGrGdTdC”, which normalised inhibition (eCFP-eYFP dual reporter) is on record?
**A.** The normalised inhibition (eCFP-eYFP dual reporter) was 62.7%.

**Q.** For “sense rCrCrArCrCrUrCrArGrGrGrCrArCrCrUrCrGrGdTdT / antisense rCrCrGrArGrGrUrGrCrCrCrUrGrArGrGrUrGrGdCdG”, which normalised inhibition (eCFP-eYFP dual reporter) is on record?
**A.** Its normalised inhibition (eCFP-eYFP dual reporter) is 70.2%.

**Q.** For “sense rCrCrGrGrCrUrCrGrArCrArGrCrGrUrUrUrCrUdTdT / antisense rArGrArArArCrGrCrUrGrUrCrGrArGrCrCrGrGdGdT”, which normalised inhibition (eCFP-eYFP dual reporter) is on record?
**A.** Its normalised inhibition (eCFP-eYFP dual reporter) is 98%.

**Q.** Which normalised inhibition (eCFP-eYFP dual reporter) does the source give for “sense rCrCrUrGrArCrArGrCrCrArGrGrGrArCrArUrGdTdT / antisense rCrArUrGrUrCrCrCrUrGrGrCrUrGrUrCrArGrGdTdT” here?
**A.** The normalised inhibition (eCFP-eYFP dual reporter) was 33.4%.

**Q.** Which normalised inhibition (eCFP-eYFP dual reporter) does the source give for “sense rCrGrCrArCrCrCrUrCrCrUrGrArArGrGrCrUrUdTdT / antisense rArArGrCrCrUrUrCrArGrGrArGrGrGrUrGrCrGdGdT” here?
**A.** The normalised inhibition (eCFP-eYFP dual reporter) was 67.9%.

**Q.** “sense rCrGrCrCrArCrCrUrCrArGrGrGrCrArCrCrUrCdTdT / antisense rGrArGrGrUrGrCrCrCrUrGrArGrGrUrGrGrCrGdTdC” was tested. Which normalised inhibition (eCFP-eYFP dual reporter) did it give?
**A.** Its normalised inhibition (eCFP-eYFP dual reporter) is 13%.

**Q.** With “sense rCrGrCrGrGrCrUrUrUrGrArCrCrArArCrCrCrAdTdT / antisense rUrGrGrGrUrUrGrGrUrCrArArArGrCrCrGrCrGdAdT” as the substance, how does the normalised inhibition (eCFP-eYFP dual reporter) read?
**A.** The normalised inhibition (eCFP-eYFP dual reporter) was 84.4%.

**Q.** With “sense rCrGrGrCrUrCrGrArCrArGrCrGrUrUrUrCrUrGdTdT / antisense rCrArGrArArArCrGrCrUrGrUrCrGrArGrCrCrGdGdG” as the substance, how does the normalised inhibition (eCFP-eYFP dual reporter) read?
**A.** Its normalised inhibition (eCFP-eYFP dual reporter) is 86%.

**Q.** For “sense rCrGrUrGrArArCrUrArCrArGrCrUrCrUrGrUrGdTdT / antisense rCrArCrArGrArGrCrUrGrUrArGrUrUrCrArCrGdCdA”, which normalised inhibition (eCFP-eYFP dual reporter) is on record?
**A.** The normalised inhibition (eCFP-eYFP dual reporter) was 42%.

**Q.** For “sense rCrUrArCrGrCrCrArArCrArGrArGrUrCrArUrGdTdT / antisense rCrArUrGrArCrUrCrUrGrUrUrGrGrCrGrUrArGdAdG”, which normalised inhibition (eCFP-eYFP dual reporter) is on record?
**A.** The normalised inhibition (eCFP-eYFP dual reporter) was 53.4%.

**Q.** Which normalised inhibition (eCFP-eYFP dual reporter) does the source give for “sense rCrUrCrGrArCrArGrCrGrUrUrUrCrUrGrArGrAdTdT / antisense rUrCrUrCrArGrArArArCrGrCrUrGrUrCrGrArGdCdC” here?
**A.** Its normalised inhibition (eCFP-eYFP dual reporter) is 64.2%.

**Q.** With “sense rCrUrCrUrGrUrGrCrUrCrCrGrGrArCrCrUrGrUdTdT / antisense rArCrArGrGrUrCrCrGrGrArGrCrArCrArGrArGdCdT” as the substance, how does the normalised inhibition (eCFP-eYFP dual reporter) read?
**A.** The normalised inhibition (eCFP-eYFP dual reporter) was 41.9%.

**Q.** How did the normalised inhibition (eCFP-eYFP dual reporter) turn out when “sense rCrUrGrArArArArUrCrArGrArUrGrCrArArGrGdTdT / antisense rCrCrUrUrGrCrArUrCrUrGrArUrUrUrUrCrArGdTdA” was run?
**A.** The normalised inhibition (eCFP-eYFP dual reporter) was 85.5%.

**Q.** Which normalised inhibition (eCFP-eYFP dual reporter) does the source give for “sense rCrUrGrArUrUrArCrGrUrGrArCrGrCrCrArCrCdTdT / antisense rGrGrUrGrGrCrGrUrCrArCrGrUrArArUrCrArGdAdC” here?
**A.** Its normalised inhibition (eCFP-eYFP dual reporter) is 50%.

**Q.** “sense rCrUrGrGrArCrCrArUrCrGrGrGrArUrCrArUrCdTdT / antisense rGrArUrGrArUrCrCrCrGrArUrGrGrUrCrCrArGdCdT” was tested. Which normalised inhibition (eCFP-eYFP dual reporter) did it give?
**A.** The normalised inhibition (eCFP-eYFP dual reporter) was 60.7%.

**Q.** With “sense rCrUrUrCrCrCrArArCrCrUrGrArCrArGrCrCrAdTdT / antisense rUrGrGrCrUrGrUrCrArGrGrUrUrGrGrGrArArGdGdA” as the substance, how does the normalised inhibition (eCFP-eYFP dual reporter) read?
**A.** Its normalised inhibition (eCFP-eYFP dual reporter) is 66.3%.

**Q.** For “sense rCrUrUrUrArCrUrUrCrUrGrUrGrGrGrArGrUrGdTdT / antisense rCrArCrUrCrCrCrArCrArGrArArGrUrArArArGdGdC”, which normalised inhibition (eCFP-eYFP dual reporter) is on record?
**A.** Its normalised inhibition (eCFP-eYFP dual reporter) is 67.7%.

**Q.** “sense rGrArArArCrGrCrCrCrArUrCrArUrGrArUrGrGdTdT / antisense rCrCrArUrCrArUrGrArUrGrGrGrCrGrUrUrUrCdCdA” was tested. Which normalised inhibition (eCFP-eYFP dual reporter) did it give?
**A.** Its normalised inhibition (eCFP-eYFP dual reporter) is 48.7%.
